Patent US20250262241A1, “METHODS TO IMPROVE STABILITY OF VIRUS TRANSDUCTION OF y8 T CELLS AND APPLICATIONS THEREOF” (UNICET BIOTECH CO. LLC., priority 2021, published 2025)
Like-named read-outs stand apart in the source and are kept apart here.

Columns and labels:
γδ2 T cells [1] = test: CAR (B7H3) related lentivirus transduction of γδ2 T cells with small inhibitors: transduction rate; format: cell-based, human
Description: VSV-G pseudotyped lentiviral vectors were applied in this method. 1×10^7 293T cells were plated into a poly-D-lysine coated 100 mm dish. Next day the cells were transfected with 6 μg of pCDH-EF1-MCS-T2A-copGFP plasmid (Addgene, Plasmid #72263) or pCDH-EF1-CAR-T2A-copGFP plasmid modified from pCDH-EF1-MCS-T2A-copGFP, 4 μg of pspAx2 (Addgene, Plasmid #12260), 2 μg of pCMV-VSV-G (Addgene, Plasmid #8454) using 30 ug PEI transfection regents. After 8 hours of transfection, the cell culture medium was changed. The supernatant were collected 48 hours and 72 hours later. Concentrated the virus with Lenti-X™ Concentrator (Takara) and monitored the virus titers by transduction of 293T cells and stored the concentrated virus in −80° C. until further use.
(§1) For lentivirus transduction, 1×10^CFU lentivirus diluted in 200 ul PBS were added in a 24-well plate which were pre-coated with RetroNectin reagent (Takara) and centrifugated by 2,000 g for 2 hours at 32° C. After centrifugation, removed the supernatant and washed the plate with PBS three times slightly.
For the virus transduction of γδ2 T cells, seeded 1×10^PBMCs which were in vitro cultured after 48 hours in the γδ2 T cell culture medium mentioned above (Gibco serum free medium with rhIL-2 and ZOL). Added or not small inhibitors and mixed well and concentrated the cells by 800 g for 10 mins at 32° C. The plates were incubated at 37° C., 5% CO2. Discarded the small inhibitors regent by changing the cell culture medium 24 hours later.
Calculate the cell number by an automated cell counter and the transduction rate (GFP positive rate) was analyzed by flow cytometry every 2 to 3 days. The transduction rate was monitored in the gate of γδ2 or γδ1 T cells.

γδ2 T cells [2] = format: cell-based, human
Description: (§2) The plates were incubated at 37° C., 5% CO2.

γδ1 T cells = test: CAR related lentivirus transduction of γδ1 T cells with small inhibitors; format: cell-based, human; conditions: control finally around 2%
Description: as §1, §2
To test the application of these small molecule on improving the transduction rate of δδ1 T cells. We evaluated the transduction rate of δδ1 T cells with/without different dosage of small molecules.

[3] = target: T1, ubiquitin-specific protease USP21 (Homo sapiens, UniProt Q9UK80); conditions: cited from earlier work
T1 sequence (Q9UK80 1-565): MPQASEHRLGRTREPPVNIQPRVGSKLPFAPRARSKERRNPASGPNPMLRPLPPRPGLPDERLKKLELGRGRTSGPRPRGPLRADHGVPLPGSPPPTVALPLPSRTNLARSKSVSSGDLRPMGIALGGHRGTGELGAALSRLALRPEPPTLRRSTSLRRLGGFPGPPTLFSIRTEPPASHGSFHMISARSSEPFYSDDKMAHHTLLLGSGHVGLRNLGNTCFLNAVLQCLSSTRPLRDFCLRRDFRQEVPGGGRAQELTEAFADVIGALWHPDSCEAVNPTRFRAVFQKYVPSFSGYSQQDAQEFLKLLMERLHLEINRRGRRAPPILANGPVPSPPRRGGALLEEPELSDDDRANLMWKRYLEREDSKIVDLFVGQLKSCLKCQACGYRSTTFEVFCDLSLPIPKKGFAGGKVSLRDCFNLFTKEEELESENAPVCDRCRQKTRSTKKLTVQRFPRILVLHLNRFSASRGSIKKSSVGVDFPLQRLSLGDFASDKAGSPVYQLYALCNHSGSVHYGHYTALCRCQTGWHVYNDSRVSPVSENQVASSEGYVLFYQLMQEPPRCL

[4] = target: ubiquitin-specific protease USP7 (Homo sapiens, UniProt Q93009); conditions: cited from earlier work
Sequence of ubiquitin-specific protease USP7 (Q93009 whole entry): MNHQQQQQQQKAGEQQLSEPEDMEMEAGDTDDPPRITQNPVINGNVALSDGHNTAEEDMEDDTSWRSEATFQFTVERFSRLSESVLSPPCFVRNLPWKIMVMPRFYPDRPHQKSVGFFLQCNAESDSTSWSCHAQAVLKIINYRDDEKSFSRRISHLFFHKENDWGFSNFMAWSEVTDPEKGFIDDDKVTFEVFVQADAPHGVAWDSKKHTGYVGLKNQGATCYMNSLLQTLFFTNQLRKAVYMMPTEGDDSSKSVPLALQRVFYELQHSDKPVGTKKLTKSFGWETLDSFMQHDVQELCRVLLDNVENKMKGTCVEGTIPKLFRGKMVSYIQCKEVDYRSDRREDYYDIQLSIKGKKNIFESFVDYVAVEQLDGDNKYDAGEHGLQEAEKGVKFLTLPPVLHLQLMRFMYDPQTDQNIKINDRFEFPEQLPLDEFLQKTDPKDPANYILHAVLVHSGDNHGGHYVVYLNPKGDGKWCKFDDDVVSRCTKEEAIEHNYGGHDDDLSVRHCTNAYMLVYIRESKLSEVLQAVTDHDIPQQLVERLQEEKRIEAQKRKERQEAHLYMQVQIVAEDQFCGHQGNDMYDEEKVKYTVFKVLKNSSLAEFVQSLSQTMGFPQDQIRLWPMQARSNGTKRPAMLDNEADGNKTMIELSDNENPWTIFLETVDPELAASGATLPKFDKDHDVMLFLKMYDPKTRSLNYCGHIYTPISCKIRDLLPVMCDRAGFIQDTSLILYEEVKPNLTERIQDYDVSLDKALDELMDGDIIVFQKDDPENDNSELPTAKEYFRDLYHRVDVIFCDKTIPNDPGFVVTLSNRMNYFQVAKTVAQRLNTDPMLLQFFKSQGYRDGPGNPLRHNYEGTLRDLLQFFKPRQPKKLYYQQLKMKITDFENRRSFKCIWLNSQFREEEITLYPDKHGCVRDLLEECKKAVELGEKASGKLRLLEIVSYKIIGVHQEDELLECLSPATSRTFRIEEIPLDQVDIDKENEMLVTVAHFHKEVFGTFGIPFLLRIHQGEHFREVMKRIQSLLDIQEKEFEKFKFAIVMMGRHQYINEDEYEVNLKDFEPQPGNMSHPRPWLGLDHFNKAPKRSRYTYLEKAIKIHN

Compound: Nc1ncc2[nH]cnc2n1 [2-Aminopurine]
- effect on transduction rate (γδ2 T cells [1]; 5 uM to 500 uM): enhance the transduction rate in a dosage dependent manner
- transduction rate (γδ2 T cells [1]; 500 uM, control around 5% at Day10): around 60%
- cell growth (γδ2 T cells [2]; 5 uM to 500 uM): did not impair the cell growth
- effect on transduction rate of γδ1 T cells (γδ1 T cells; 500 uM): could improve the transduction rate

Compound: COc1cc(O)c2c(c1)/C=C/C[C@H](O)[C@H](O)C(=O)/C=C\C[C@H](C)OC2=O [(5Z)-7-Oxozeaenol]
- transduction rate (γδ2 T cells [1]; 0.6 uM, control around 5% at Day10): higher than 20%
- transduction rate (γδ2 T cells [1]; 6 uM, control around 5% at Day10): higher than 30%
- effect on transduction rate (γδ2 T cells [1]; 60 uM compared with 6 uM): did not perform better to improve the transduction rate
- cell growth (γδ2 T cells [2]; 0.6 uM and 6 uM): did not influence the cell growth
- cell growth (γδ2 T cells [2]; 60 uM compared with 6 uM): impaired the cell growth
- effect on transduction rate of γδ1 T cells (γδ1 T cells; 6 uM): could improve the transduction rate

Compound: Cc1ccc(S(=O)(=O)/C=C/C#N)cc1 [BAY11-7082]
- effect on transduction rate (γδ2 T cells [1]; 0.5 uM to 50 uM): enhance the transduction rate in a dosage dependent manner
- transduction rate (γδ2 T cells [1]; 50 uM, control around 5% at Day10): higher than 70%
- cell growth (γδ2 T cells [2]; 0.5 uM to 50 uM, higher dosage, less total cell number): impaired the cell growth in a dosage dependent manner
- effect on transduction rate of γδ1 T cells (γδ1 T cells; 50 uM): could improve the transduction rate
- IC50 [3]: 960 nM
- IC50 [4]: 190 nM

Compound: CC(C)C[C@H](NC(=O)[C@H](Cc1ccccc1)NC(=O)c1cnccn1)B(O)O [Bortezomib]
- transduction rate (γδ2 T cells [1]; 0.04 uM, control around 5% at Day10): ~50%
- transduction rate (γδ2 T cells [1]; 0.4 uM and 4 uM, control around 5% at Day10): higher than 20%
- cell growth (γδ2 T cells [2]; 0.04 uM, 0.4 uM, 4 uM): impaired the cell growth in a dosage dependent manner
- cell number (γδ2 T cells [2]; 0.4 uM and 4 uM): significantly cell number loss
- effect on transduction rate of γδ1 T cells (γδ1 T cells; 0.04 μM, 0.4 μM or 4 μM): All the molecules except for Bortezomib could improve the transduction rate

Compound: COc1cc(/C=C/C(=O)CC(=O)/C=C/c2ccc(O)c(OC)c2)ccc1O [Curcumin]
- transduction rate (γδ2 T cells [1]; 10 uM, day 10, control around 5%): higher than 20%
- effect on transduction rate (γδ2 T cells [1]; 100 uM (highest dosage)): slightly enhance the transduction rate
- effect on transduction rate (γδ2 T cells [1]; luM (low dosage)): did not enhance the transduction rate
- cell growth (γδ2 T cells [2]; 10 uM): inhibited the cell growth slightly
- cell growth (γδ2 T cells [2]; 100 uM): significantly impaired the cell growth
- cell growth (γδ2 T cells [2]; luM (low dosage)): enhanced the cell growth
- effect on transduction rate of γδ1 T cells (γδ1 T cells; 10 uM): could improve the transduction rate

Compound: C[C@@H]1C[C@H]2[C@@H]3CCC4=CC(=O)C=C[C@]4(C)[C@@]3(F)[C@@H](O)C[C@]2(C)[C@@]1(O)C(=O)CO [Dexamethasone]
- transduction rate (γδ2 T cells [1]; 6.4 uM, control around 5% at Day10): higher than 25%
- cell growth (γδ2 T cells [2]; 0.064 uM to 6.4 uM): did not impair the cell growth

Compound: O=C(Nc1nc2ccccc2n1CCN1CCOCC1)c1cccc([N+](=O)[O-])c1 [IRAK1/4 Inhibitor I]
- effect on transduction rate (γδ2 T cells [1]; 0.03 uM to 3 uM): enhance the transduction rate in a dosage dependent manner
- transduction rate (γδ2 T cells [1]; 3 uM, control around 5% at Day10): higher than 35%
- cell growth (γδ2 T cells [2]; 0.03 uM to 3 uM): did not impair the cell growth
- effect on transduction rate of γδ1 T cells (γδ1 T cells; 0.3 uM): could improve the transduction rate
